Test results published in patent US20230142606A1, “PESTICIDALLY ACTIVE FUSED BICYCLIC HETEROAROMATIC AMINO COMPOUNDS” (SYNGENTA CROP PROTECTION AG, priority 2020, published 2023).

Columns and labels:
Assay type in all cases: in vivo
[1] = test system: Chilo suppressalis (Striped Rice Stemborer); experiment: Example B3: Chilo suppressalis (striped rice stemborer), artificial diet, L2 larvae; details: 144 h, application rate of 200 ppm, pipetting, 6 days after infestation, in comparison to untreated samples, read-out: control (at least one of mortality, anti-feedant effect, growth inhibition)
Method: Example B3: Chilo suppressalis (Striped Rice Stemborer)
24-well microtiter plates with artificial diet were treated with aqueous test solutions prepared from 10′000 ppm DMSO stock solutions by pipetting. After drying, the plates were infested with L2 larvae (6-8 per well). The samples were assessed for mortality, anti-feeding effect, and growth inhibition in comparison to untreated samples 6 days after infestation. Control of Chilo suppressalis by a test sample is given when at least one of the categories mortality, anti-feedant effect, and growth inhibition is higher than the untreated sample.

[2] = test system: Diabrotica Balteata (Corn Root Worm); experiment: Example B1: Diabrotica balteata (corn root worm), maize sprouts sprayed, L2 larvae; details: 96 h, application rate of 200 ppm, 4 days after infestation, in comparison to untreated samples, read-out: effect in at least one of the two categories (mortality or growth inhibition)
Method: Example B1: Diabrotica Balteata (Corn Root Worm)
Maize sprouts placed onto an agar layer in 24-well microtiter plates were treated with aqueous test solutions prepared from 10′000 ppm DMSO stock solutions by spraying. After drying, the plates were infested with L2 larvae (6 to 10 per well). The samples were assessed for mortality and growth inhibition in comparison to untreated samples 4 days after infestation.
The following compounds gave an effect of at least 80% in at least one of the two categories (mortality or growth inhibition) at an application rate of 200 ppm: […]

[3] = test system: Spodoptera littoralis (Egyptian Cotton Leaf Worm); experiment: Example B5: Spodoptera littoralis (Egyptian cotton leaf worm), cotton leaf discs sprayed, L1 larvae; details: foliar, 72 h, application rate of 200 ppm, 3 days after infestation, in comparison to untreated samples, read-out: control (at least one of mortality, anti-feedant effect, growth inhibition)
Method: Example B5: Spodoptera littoralis (Egyptian Cotton Leaf Worm)
Cotton leaf discs were placed onto agar in 24-well microtiter plates and sprayed with aqueous test solutions prepared from 10′000 ppm DMSO stock solutions. After drying the leaf discs were infested with five L1 larvae. The samples were assessed for mortality, anti-feeding effect, and growth inhibition in comparison to untreated samples 3 days after infestation. Control of Spodoptera littoralis by a test sample is given when at least one of the categories mortality, anti-feedant effect, and growth inhibition is higher than the untreated sample.

[4] = test system: Plutella xylostella (Diamond Back Moth); experiment: Example B4: Plutella xylostella (diamond back moth), 24-well artificial diet, eggs; details: 192 h, application rate of 200 ppm, pipetting, 8 days after infestation, in comparison to untreated samples, read-out: effect in at least one of the two categories (mortality or growth inhibition)
Method: Example B4: Plutella xylostella (Diamond Back Moth)
24-well microtiter plates with artificial diet were treated with aqueous test solutions prepared from 10′000 ppm DMSO stock solutions by pipetting. After drying, Plutella eggs were pipetted through a plastic stencil onto a gel blotting paper and the plate was closed with it. The samples were assessed for mortality and growth inhibition in comparison to untreated samples 8 days after infestation. The following compounds gave an effect of at least 80% in at least one of the two categories (mortality or growth inhibition) at an application rate of 200 ppm: […]

[5] = test system: Plutella xylostella (Diamondback Moth); experiment: Example B7: Plutella xylostella (diamondback moth), 96-well artificial diet, eggs; details: 216 h, application rate of 500 ppm, eggs (~30 per well), 9 days after infestation, read-out: control (samples assessed for mortality)
Method: Example B7: Plutella xylostella (Diamondback Moth)
96-well microtiter plates containing artificial diet were treated with aqueous test solutions, prepared from 10′000 ppm DMSO stock solutions, by a liquid handling robot. After drying, eggs (˜30 per well) were infested onto a netted lid which was suspended above the diet. The eggs hatch and L1 larvae move down to the diet. The samples were assessed for mortality 9 days after infestation.

C[C@H](Nc1nnc2c(C(F)(F)F)cc(C(F)(F)F)cn12)c1ncnn1-c1ccc(C#N)cn1 [Compound P2, 6-[5-[(1S)-1-[[6,8-bis(trifluoromethyl)-[1,2,4]triazolo[4,3-a]pyridin-3-yl]amino]ethyl]-1,2,4-triazol-1-yl]pyridine-3-carbonitrile]
≥ 80%: percent control (mortality, anti-feedant effect or growth inhibition) at 200 ppm [1] | percent effect (mortality or growth inhibition) at 200 ppm [2] | percent control (mortality, anti-feedant effect or growth inhibition) at 200 ppm [3] | percent effect (mortality or growth inhibition) at 200 ppm [4]

CC(Nc1nnc2c(C(F)(F)F)cc(Br)cn12)c1ncnn1-c1ncccn1 (stereo not shown) [Compound P7, 6-bromo-N-[1-(2-pyrimidin-2-yl-1,2,4-triazol-3-yl)ethyl]-8-(trifluoromethyl)-[1,2,4]triazolo[4,3-a]pyndin-3-amine]
≥ 80%: percent control (mortality, anti-feedant effect or growth inhibition) at 200 ppm [1]

CC(Nc1nnc2c(C(F)(F)F)cc(Br)cn12)c1ncnn1-c1ccc(Br)cn1 (stereo not shown) [Compound P5, 6-bromo-N-[1-[2-(5-bromo-2-pyridyl)-1,2,4-triazol-3-yl]ethyl]-8-(trifluoromethyl)-[1,2,4]triazolo[4,3-a]pyridin-3-amine]
≥ 80%: percent control (mortality, anti-feedant effect or growth inhibition) at 200 ppm [1] | percent effect (mortality or growth inhibition) at 200 ppm [2] | percent effect (mortality or growth inhibition) at 200 ppm [4]

CC(Nc1nnc2c(C(F)(F)F)cc(Br)cn12)c1ncnn1-c1ccc(C#N)cn1 (stereo not shown) [Compound P6, 6-[5-[1-[[6-bromo-8-(trifluoromethyl)-[1,2,4]triazolo[4,3-a]pyridin-3-yl]amino]ethyl]-1,2,4-triazol-1-yl]pyridine-3-carbonitrile]
≥ 80%: percent control (mortality, anti-feedant effect or growth inhibition) at 200 ppm [1] | percent control (mortality, anti-feedant effect or growth inhibition) at 200 ppm [3] | percent effect (mortality or growth inhibition) at 200 ppm [4]

C[C@@H](c1ncnn1-c1ccc(C#N)cn1)N(C)c1nnc2c(C(F)(F)F)cc(C(F)(F)F)cn12 [Compound P1, 6-[5-[(lS)-1-[[6.8-bis(trifluoromethyl)-[1,2,4]triazolo[4,3-a]pyridin-3-yl]-methyl-amino]ethyl]-1,2,4-triazol-1-yl]pyridine-3-carbonitrile]
≥ 80%: percent control (mortality, anti-feedant effect or growth inhibition) at 200 ppm [1] | percent effect (mortality or growth inhibition) at 200 ppm [2] | percent effect (mortality or growth inhibition) at 200 ppm [4]

CC(Nc1nnc2c(Cl)cc(C(F)(F)F)cn12)c1ncnn1-c1ncccn1 (stereo not shown) [Compound P9, 8-chloro-N-[1-(2-pyrimidin-2-yl-1,2,4-triazol-3-yl)ethyl]-6-(trifluoromethyl)-[1,2,4]triazolo[4,3-a]pyridin-3-amine]
≥ 80%: percent control (mortality, anti-feedant effect or growth inhibition) at 200 ppm [1] | mortality at 500 ppm [5]

CC(Nc1nnc2c(C(F)(F)F)cc(C(F)(F)F)cn12)c1ncnn1-c1ccc(Br)cn1 (stereo not shown) [Compound P4, N-[1-[2-(5-bromo-2-pyridyl)-1,2,4-triazol-3-yl]ethyl]-6,8-bis(trifluoromethyl)-[1,2,4]triazolo[4,3-a]pyridin-3-amine]
≥ 80%: percent control (mortality, anti-feedant effect or growth inhibition) at 200 ppm [1] | percent effect (mortality or growth inhibition) at 200 ppm [2] | percent control (mortality, anti-feedant effect or growth inhibition) at 200 ppm [3] | percent effect (mortality or growth inhibition) at 200 ppm [4]

CC(Nc1nnc2c(C(F)(F)F)cc(C(F)(F)F)cn12)c1ncnn1-c1ccc(C#N)cn1 (stereo not shown) [Compound P3, 6-[5-[1-[[6,8-bis(trifluoromethyl)-[1,2,4]triazolo[4,3-a]pyridin-3-yl]amino]ethyl]-1,2,4-triazol-1-yl]pyridine-3-carbonitrile]
≥ 80%: percent control (mortality, anti-feedant effect or growth inhibition) at 200 ppm [1] | percent effect (mortality or growth inhibition) at 200 ppm [2] | percent control (mortality, anti-feedant effect or growth inhibition) at 200 ppm [3] | percent effect (mortality or growth inhibition) at 200 ppm [4]

CC(Nc1nnc2c(Cl)cc(C(F)(F)F)cn12)c1ncnn1-c1ccc(C#N)cn1 (stereo not shown) [Compound P8, 6-[5-[1-[[8-chloro-6-(trifluoromethyl)-[1,2,4]triazolo[4,3-a]pyridin-3-yl]amino]ethyl]-1,2,4-triazol-1-yl]pyridine-3-carbonitrile]
≥ 80%: percent control (mortality, anti-feedant effect or growth inhibition) at 200 ppm [1] | percent effect (mortality or growth inhibition) at 200 ppm [2] | percent control (mortality, anti-feedant effect or growth inhibition) at 200 ppm [3] | percent effect (mortality or growth inhibition) at 200 ppm [4]
